Experimental findings from ChEMBL document CHEMBL1201862, “PubChem BioAssay data set” (2004) are described below.

The target in one test is Kallikrein-7 (Homo sapiens, UniProt P49862). The test is described as follows: Fluorescence Intensity-based biochemical primary high throughput dose response assay to identify activators of kallikrein-7 (K7) zymogen.
For another test, the target named is Cytochrome P450 3A4 (Homo sapiens, UniProt P08684).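 Also: CYP3A4 tested as one member of a cytochrome P450 panel screen.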
Cytochrome P450 3A4, sequence (P08684 whole entry): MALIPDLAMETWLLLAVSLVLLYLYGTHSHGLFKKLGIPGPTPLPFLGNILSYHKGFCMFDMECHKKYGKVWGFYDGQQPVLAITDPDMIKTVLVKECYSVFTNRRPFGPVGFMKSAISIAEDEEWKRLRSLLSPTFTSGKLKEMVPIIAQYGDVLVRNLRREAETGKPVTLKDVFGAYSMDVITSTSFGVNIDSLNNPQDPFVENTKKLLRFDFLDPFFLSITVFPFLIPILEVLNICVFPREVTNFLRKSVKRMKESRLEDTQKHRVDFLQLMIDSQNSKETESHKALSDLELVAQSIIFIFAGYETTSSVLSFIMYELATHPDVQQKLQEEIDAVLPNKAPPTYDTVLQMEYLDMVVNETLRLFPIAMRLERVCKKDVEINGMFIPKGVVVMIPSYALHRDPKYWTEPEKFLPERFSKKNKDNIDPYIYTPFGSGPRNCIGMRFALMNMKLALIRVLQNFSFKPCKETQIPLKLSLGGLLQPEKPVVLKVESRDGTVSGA
Test [1] is described as follows: cells.
The nature of test [2]: HepG2 cell cytotoxicity, dose response, cytotoxicity control, ATP luminescence, cherry-pick, set 6 (AID 1053125). Format: functional, cell-based.
Test [3] can be described thus: cells. Particulars: A549.
Test [4] is described as follows: P. falciparum Dd2 growth inhibitors, dose response, SYBR Green, dry powder samples, set 4 (AID 1159572). Format: functional, cell-based.
A short description of test [5]: HeLa 4N DNA content increase, dose response, cell-based, IC50 (AID 1117351). The class given is functional.
Test [6] is described as follows: cytotoxicity toward HCT116 cells – cell-based, CellTiter-Glo luminescence, IC50, dose response (AID 1117332). Format: functional. Particulars: HCT-116.
Test [7] can be described thus: RKO cell viability reduction, dose response, CellTiter-Glo luminescence (AID 1117322). Format: functional.
Test [8] in a line: Concentration-dependent survival of SW480 colon cancer line, luminescence detection with CellTiter-Glo, half-maximal inhibitory concentration (AID 1117338). Format: functional.
A short description of test [9]: HeLa 2N DNA content increase, dose response, cell-based, IC50 (AID 1117349). Format: functional.
Test [10] can be described thus: CellTiter-Glo luminescent dose response of DLD-1 viability loss (AID 1117352). Format: functional.
Test [11] is described as follows: HCT116 cell viability decrease, GSK3B pretreatment – CellTiter-Glo, IC50, dose response (AID 1117339). The note with it: HCT-116. The class given is functional.
Test [12] can be described thus: SNU-C1 cell viability reduction, dose response, CellTiter-Glo luminescence (AID 1117323). Format: functional, cell-based.
Test [13] can be described thus: cytotoxicity toward Colo320 cells – cell-based, CellTiter-Glo luminescence, IC50, dose response (AID 1117334). The class given is functional. The note with it: COLO 320.
Test [14] in a line: cytotoxicity toward HT-29 cells – cell-based, CellTiter-Glo luminescence, IC50, dose response (AID 1117330). Format: functional.
A short description of test [15]: NIH:OVCAR-3 ovarian cancer cell cytotoxicity, dose response, PAX8 inhibitor project, plate reader, dry powder samples (AID 743044). Format: functional, cell-based.
The nature of test [16]: cytotoxicity in COV362 ovarian cancer cells, dose response, cytotoxicity control for PAX8 inhibitor project, cell-based, plate reader, dry powder, SA12 (AID 743144). The class given is functional.
The nature of test [17]: cytotoxicity in OVCAR4 cells, dose response, cytotoxicity control for PAX8 inhibitor project, cell-based, plate reader, dry powder, SA11 (AID 743150). The class given is functional. Particulars: OVCAR-4.
Test [18] in a line: cytotoxicity in OV-90 ovarian cancer cells, dose response, PAX8 inhibitor project, cell-based, plate reader, dry powder, SA8 (AID 743149). Format: functional.
Test [19] is described as follows: cytotoxicity dependent on PAX8, dose response, cell-based, plate reader, dry powder (AID 743049). Format: functional.
Test [20] in a line: inhibitors of intracellular T. cruzi replication, confirmation, NIH3T3 host cells, beta-gal luminescence (AID 2044).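 Also: intracellular parasites grown in NIH/3T3 mouse fibroblasts as host cells; luminescent beta-galactosidase reporter signal from transgenic T. cruzi replicating inside host cells; inhibitors lower the luminescence signal.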 The class given is functional, cell-based.
Test [21] in a line: cytotoxicity in COV434 cells, dose response, cytotoxicity control for PAX8 inhibitor project, cell-based, plate reader, dry powder, SA7 (AID 743145). Format: functional.
Test [22] can be described thus: PAX5 activity inhibitors, dose response, selectivity assay for PAX8 inhibitor project, cell-based, plate reader, dry powder samples (AID 743047).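 Also: HEK293 cells carrying a Pax5 driven CD19 promoter luciferase reporter; potency of inhibitors that lower reporter luminescence.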 Format: functional.
Test [23] is described as follows: IOSE-T80 ovarian epithelial cell cytotoxicity, dose response, cytotoxicity control for PAX8 inhibitor project, plate reader, dry powder samples (AID 743045). Format: functional, cell-based.
Test [24] can be described thus: PAX2 cell-based inhibition, dose response, selectivity assay for PAX8 inhibitor project, plate reader, dry powder samples (AID 743048).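 Also: HEK293 cells carrying a WT1 promoter luciferase reporter driven by expressed Pax2; potency is for inhibition of Pax2 driven reporter signal.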 The class given is functional.
The nature of test [25]: cytotoxicity toward NIH3T3 fibroblasts, dose response, counter-screen, cell-based, ATP luminescence, mouse fibroblasts (AID 2010).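 Also: cells exposed to compound for about 90 hours before reading.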 The class given is functional.
Test [26] in a line: A2780 ovarian cancer cell cytotoxicity, dose response, cytotoxicity control, plate reader, dry powder samples (AID 743046). The class given is functional, cell-based.
A further test deals with Paired box protein Pax-8 (Homo sapiens, UniProt Q06710). Kind of test: inhibitors of PAX8-driven TPO luciferase reporter, dose response, RMG-I cells, cherry-pick (AID 687027).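 Also: luciferase reporter driven by Pax8 target thyroperoxidase promoter measured by SteadyGlo luminescence.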 The class given is functional, cell-based.
Paired box protein Pax-8, sequence (Q06710 whole entry, the tested form may be a part): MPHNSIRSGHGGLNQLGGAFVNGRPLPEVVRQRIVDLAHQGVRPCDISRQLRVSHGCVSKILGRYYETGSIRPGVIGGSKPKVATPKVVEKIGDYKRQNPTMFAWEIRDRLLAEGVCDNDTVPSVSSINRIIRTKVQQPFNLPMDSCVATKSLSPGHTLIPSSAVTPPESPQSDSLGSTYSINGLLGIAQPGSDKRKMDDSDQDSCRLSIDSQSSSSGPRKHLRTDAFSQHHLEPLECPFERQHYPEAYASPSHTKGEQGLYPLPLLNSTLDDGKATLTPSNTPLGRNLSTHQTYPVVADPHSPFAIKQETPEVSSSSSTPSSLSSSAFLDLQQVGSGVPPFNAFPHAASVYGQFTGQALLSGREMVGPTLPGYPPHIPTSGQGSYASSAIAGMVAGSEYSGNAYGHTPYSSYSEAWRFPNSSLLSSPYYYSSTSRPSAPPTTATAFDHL
The nature of test [27]: inhibitors of clade B AD8 Env fusion, dose response, cell-based, cherry-pick (AID 652062).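 Also: luciferase signal from cell-cell fusion driven by HIV-1 clade B AD8 Env; potency is for inhibitors of fusion seen as a drop in luminescence.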 The class given is functional.
Test [28] can be described thus: CEM21 cell cytotoxicity, dose response, cytotoxicity control, plate reader, dry powder (AID 687026). The class given is functional, cell-based.
The nature of test [29]: inhibitors of HIV Env-driven cell fusion, dose response, cherry-pick (AID 652057). Format: functional, cell-based.
The nature of test [30]: ZM109 Env clade C HIV-1 fusion inhibitors, dose response, HeLa effector, CEM target cells, luciferase, cherry-pick (AID 652058). The class given is functional, cell-based.
The nature of test [31]: HIV Env cell-cell fusion inhibitors, dose response, HIV entry, plate reader, dry powder (AID 687023). Format: functional, cell-based.
The nature of test [32]: C. albicans growth with fluconazole, confirmation, fluorescence, retest (AID 2467). The class given is functional, cell-based.
Test [33] addresses Disintegrin and metalloproteinase domain-containing protein 17 (Homo sapiens, UniProt P78536). The test is described as follows: ADAM17 protease inhibitors, dose response, counter-screen for ADAM10 exosite inhibitor project, biochemical, quenched FRET substrate (AID 743253).
Test [34] can be described thus: NIH-3T3 fibroblast cytotoxicity, dose response, cytotoxicity control, cell-based, fluorescence, Alamar Blue, secondary assay (AID 2327).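 Also: NIH-3T3 mouse fibroblasts cultured with fluconazole at 8 µg/mL.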 The class given is functional.
A short description of test [35]: ADAM10 inhibitors, peptide cleavage, dose response, biochemical, QFRET (AID 743254).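 Also: ADAM10 enzyme with the DM2 quenched FRET peptide as substrate; EDANS fluorescence gain as the protease cuts the substrate; inhibitor potency against ADAM10 proteolytic activity.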
The target of test [36] is ATP-dependent molecular chaperone HSP82 (Candida albicans (strain WO-1) (Yeast), UniProt C4YTQ8). Kind of test: loss of DOC-induced GRE-beta-galactosidase reporter signal, dose response, Hsp90 inhibitor project, S. cerevisiae, luminescence (AID 2400).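 Also: beta-galactosidase luminescence from glucocorticoid response element reporter as proxy for Hsp90 function; inhibitor potency where signal loss means Hsp90 inhibition.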 Format: functional, cell-based.
ATP-dependent molecular chaperone HSP82, sequence (C4YTQ8 whole entry): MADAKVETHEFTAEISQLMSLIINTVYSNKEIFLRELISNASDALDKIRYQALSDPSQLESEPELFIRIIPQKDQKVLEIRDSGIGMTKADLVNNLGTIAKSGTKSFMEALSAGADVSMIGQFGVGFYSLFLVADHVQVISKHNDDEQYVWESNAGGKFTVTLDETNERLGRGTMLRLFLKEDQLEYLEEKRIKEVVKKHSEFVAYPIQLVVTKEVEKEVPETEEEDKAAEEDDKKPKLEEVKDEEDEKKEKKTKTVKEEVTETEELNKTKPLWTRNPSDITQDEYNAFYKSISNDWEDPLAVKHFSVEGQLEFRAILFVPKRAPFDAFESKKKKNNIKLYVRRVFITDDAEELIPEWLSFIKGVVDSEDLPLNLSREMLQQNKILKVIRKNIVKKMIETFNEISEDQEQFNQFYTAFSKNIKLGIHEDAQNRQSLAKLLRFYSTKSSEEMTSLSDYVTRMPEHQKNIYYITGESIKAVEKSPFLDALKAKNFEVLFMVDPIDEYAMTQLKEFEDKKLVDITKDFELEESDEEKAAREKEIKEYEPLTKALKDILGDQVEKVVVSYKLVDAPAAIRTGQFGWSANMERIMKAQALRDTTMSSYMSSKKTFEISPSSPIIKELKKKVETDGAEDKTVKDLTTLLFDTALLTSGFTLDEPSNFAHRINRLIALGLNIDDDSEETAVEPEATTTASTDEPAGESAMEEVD
Test [37] addresses T1, Serine/threonine-protein phosphatase (Candida dubliniensis (strain CD36 / CBS 7987 / NCPF 3949 / NRRLY-17841) (Yeast), UniProt B9W6M3).
T1 sequence (B9W6M3 whole entry): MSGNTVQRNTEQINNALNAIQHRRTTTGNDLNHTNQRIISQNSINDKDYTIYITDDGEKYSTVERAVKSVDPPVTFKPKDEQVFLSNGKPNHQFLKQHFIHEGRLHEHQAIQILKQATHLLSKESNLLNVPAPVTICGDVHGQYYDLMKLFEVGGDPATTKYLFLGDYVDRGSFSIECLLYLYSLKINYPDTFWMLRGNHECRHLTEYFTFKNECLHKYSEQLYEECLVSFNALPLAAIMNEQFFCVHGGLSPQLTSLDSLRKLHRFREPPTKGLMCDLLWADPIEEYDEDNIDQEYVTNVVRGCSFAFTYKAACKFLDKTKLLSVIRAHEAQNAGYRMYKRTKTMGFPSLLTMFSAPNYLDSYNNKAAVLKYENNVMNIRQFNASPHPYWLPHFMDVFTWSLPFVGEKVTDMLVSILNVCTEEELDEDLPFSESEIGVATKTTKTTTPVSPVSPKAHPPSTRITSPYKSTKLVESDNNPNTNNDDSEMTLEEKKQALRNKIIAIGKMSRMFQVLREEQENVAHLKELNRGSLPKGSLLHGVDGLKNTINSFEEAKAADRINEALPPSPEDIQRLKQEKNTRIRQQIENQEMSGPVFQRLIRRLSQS
The test is described as follows: calcineurin pathway inhibitors in yeast reporter, dose response, S. cerevisiae, CDRE-lacZ, luminescence, secondary (AID 2388).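 Also: yeast reporter cells carrying a calcineurin-responsive lacZ construct stimulated with calcium chloride; luminescent beta-galactosidase reporter signal in whole cells rather than isolated phosphatase activity; potency for inhibition where a drop in reporter signal means calcineurin blockade.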 The class given is functional, cell-based.

Molecules are shown by their SMILES. Active and inactive are the calls of the source.

Kallikrein-7, sequence (P49862 whole entry): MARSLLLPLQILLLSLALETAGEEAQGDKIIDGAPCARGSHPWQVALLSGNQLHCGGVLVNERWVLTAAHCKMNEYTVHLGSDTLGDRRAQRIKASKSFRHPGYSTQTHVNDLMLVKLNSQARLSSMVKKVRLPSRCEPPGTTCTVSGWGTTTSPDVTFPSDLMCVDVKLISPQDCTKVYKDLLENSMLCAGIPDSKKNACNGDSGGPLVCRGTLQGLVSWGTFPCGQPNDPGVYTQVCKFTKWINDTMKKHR
Disintegrin and metalloproteinase domain-containing protein 17, sequence (P78536 whole entry, the tested form may be a part): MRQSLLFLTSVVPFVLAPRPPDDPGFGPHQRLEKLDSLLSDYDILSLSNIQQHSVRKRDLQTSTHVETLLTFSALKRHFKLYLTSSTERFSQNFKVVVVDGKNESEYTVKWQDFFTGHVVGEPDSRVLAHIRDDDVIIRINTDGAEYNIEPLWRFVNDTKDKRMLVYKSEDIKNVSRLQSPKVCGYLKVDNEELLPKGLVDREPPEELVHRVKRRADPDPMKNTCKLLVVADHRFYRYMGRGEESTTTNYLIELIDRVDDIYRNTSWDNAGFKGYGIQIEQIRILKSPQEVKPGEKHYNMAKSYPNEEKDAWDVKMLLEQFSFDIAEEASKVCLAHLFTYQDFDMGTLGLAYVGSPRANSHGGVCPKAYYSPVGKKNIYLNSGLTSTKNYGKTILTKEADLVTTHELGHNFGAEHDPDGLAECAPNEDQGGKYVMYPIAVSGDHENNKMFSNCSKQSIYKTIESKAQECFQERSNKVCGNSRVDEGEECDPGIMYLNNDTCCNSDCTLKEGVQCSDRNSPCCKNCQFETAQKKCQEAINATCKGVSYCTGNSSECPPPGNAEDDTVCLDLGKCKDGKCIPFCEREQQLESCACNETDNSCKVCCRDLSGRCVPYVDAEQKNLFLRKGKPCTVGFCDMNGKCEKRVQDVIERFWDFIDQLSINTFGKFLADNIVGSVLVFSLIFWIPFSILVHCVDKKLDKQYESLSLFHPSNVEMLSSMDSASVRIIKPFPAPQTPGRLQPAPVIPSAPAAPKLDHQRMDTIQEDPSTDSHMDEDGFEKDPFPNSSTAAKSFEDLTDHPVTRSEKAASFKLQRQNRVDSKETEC

Regarding `CCN(CC)Cc1c(O)ccc2c(=O)c(Oc3ccccc3OC)coc12`, the EC50 on Kallikrein-7 is 13.1 µM (inactive). Also, the AC50 on Cytochrome P450 3A4 is 25.1 µM (inconclusive).
As to `CC1CCCCN1Cc1c(O)ccc2c(=O)c(-c3nc4ccccc4s3)coc12` (stereo not given), the AC50 in “cells [1]” was 47 µM (active); in [2], 40.4 µM (active); in “cells [3]”, 44.8 µM (active).
`COc1ccc2c3c(n(C)c2c1)[C@H](CO)N(C(C)=O)CC31CCN(C(=O)Nc2ccccc2F)CC1`: the AC50 in test [4] was 6.63 µM (active).
As to `O=C(NOCC1CC1)c1ccc(F)c(F)c1Nc1ccc(I)cc1Cl` [CI-1040], the IC50 in test [5] is > 10 µM (inactive); in test [6], 1.79 nM (active); in [7] it was 3.19 nM (active); in [8], 4.95 nM (active); in test [9], > 10 µM (inactive); in test [10], 2.16 µM (active). The IC50 in test [11] is 969 nM (active); in test [12], 17.1 nM (active); in [13] it was 848 nM (active); in test [14], 26.3 nM (active).
Regarding `COc1ccc2c(c1)C(C)=CC(C)(C)N2S(=O)(=O)c1ccc(Br)cc1`, the AC50 is 8.79 µM (active) in test [15]; 15.3 µM (active) in test [16]; 5.89 µM (active) in test [17]; 5.9 µM (active) in test [18]; 16 µM (active) in [19]; 4.64 µM (active) in test [21]. The AC50 is 75.6 µM (active) in test [22]; 8.49 µM (active) in test [23]; 63 µM (active) in test [24]; 12 µM (active) in test [26]; 7.63 µM (active) at Paired box protein Pax-8. Further, the EC50 was 2.06 µM (active) in test [20] and 1.05 µM (active) in [25].
For the compound `CCCNC(=O)N1[C@H](C#N)[C@H](c2ccc(-c3cccnc3)cc2)[C@@H]1CO`, the AC50 in [27] was 4.97 µM (active); in [28], > 70 µM (inactive); in test [29], 930 nM (active); in [30], 10.2 µM (active); in test [31] it was 1.61 µM (active).
With `Cc1cc(C)c(-c2cc(NC(=O)COC(=O)c3ccc(C#N)cc3)n(-c3ccccc3)n2)cc1C`, the EC50 in [32] is 92 nM (active); in test [34], > 150 µM (inactive); in test [36], > 160 µM (inactive); in test [37], > 180 µM (inactive). For the same compound, the IC50 in test [33] and in test [35] was > 69.5 µM (inactive) throughout.
